Laboratory results reported in ChEMBL document CHEMBL4732190, “Identification of Potent and Long-Acting Single-Chain Peptide Mimetics of Human Relaxin-2 for Cardiovascular Diseases” (J Med Chem, 2021).
*1 amine or outer side, *2 acyl side, *3 side chain or, on linkers, in order; H or OH if unused. Where a SMILES comes first, the peptide text is derived from it. [ ]: non-standard residue; d: D form. The star is where a group is joined. X5 = CCCCCCCCCCCCCCCCCCC(=O)[C@H](CCC(=O)O)NC(=O)[C@H](CCC(=O)O)NC(=O)[C@H](CCC(=O)O)NC(=O)[C@H](CCCCN)NC(=O)COCC(=O)NCCCOCCOCCOCCCNC(=O)COCC(=O)NCCCOCCOCCOCCCNC(=O)COCC(=O)NCCCOCCOCCOCCCN*; PEG11 = NCCOCCOCCOCCOCCOCCOCCOCCOCCOCCOCCOCCC(=O)O; X6 = CCCCCCCCCCCCCCCCCCC(=O)[C@H](CCC(=O)O)N*; X2 = CCCCCCCCCCCCCCCCCC(=O)[C@H](CCC(N)=O)N*; β2hAla(2S) = C[C@@H](CN[*:1])C(=O)[*:2]; hLys = NCCCCC[C@H](N)C(=O)O; Nle = CCCC[C@H](N)C(=O)O; AEEA = NCCOCCOCC(=O)O

Experiments:
[1] = biological target: T1, Relaxin receptor 1 (Homo sapiens, UniProt Q9HBX9); assay: Agonist activity at RXFP1 endogenously expressed in human OVCAR-5 cells assessed as increase in IBMX-induced cAMP accumulation pretreated with IBMX for 40 mins followed by compound addition and measured after 30 mins by HTRF assay; format: functional, cell-based
T1 sequence (Q9HBX9 whole entry): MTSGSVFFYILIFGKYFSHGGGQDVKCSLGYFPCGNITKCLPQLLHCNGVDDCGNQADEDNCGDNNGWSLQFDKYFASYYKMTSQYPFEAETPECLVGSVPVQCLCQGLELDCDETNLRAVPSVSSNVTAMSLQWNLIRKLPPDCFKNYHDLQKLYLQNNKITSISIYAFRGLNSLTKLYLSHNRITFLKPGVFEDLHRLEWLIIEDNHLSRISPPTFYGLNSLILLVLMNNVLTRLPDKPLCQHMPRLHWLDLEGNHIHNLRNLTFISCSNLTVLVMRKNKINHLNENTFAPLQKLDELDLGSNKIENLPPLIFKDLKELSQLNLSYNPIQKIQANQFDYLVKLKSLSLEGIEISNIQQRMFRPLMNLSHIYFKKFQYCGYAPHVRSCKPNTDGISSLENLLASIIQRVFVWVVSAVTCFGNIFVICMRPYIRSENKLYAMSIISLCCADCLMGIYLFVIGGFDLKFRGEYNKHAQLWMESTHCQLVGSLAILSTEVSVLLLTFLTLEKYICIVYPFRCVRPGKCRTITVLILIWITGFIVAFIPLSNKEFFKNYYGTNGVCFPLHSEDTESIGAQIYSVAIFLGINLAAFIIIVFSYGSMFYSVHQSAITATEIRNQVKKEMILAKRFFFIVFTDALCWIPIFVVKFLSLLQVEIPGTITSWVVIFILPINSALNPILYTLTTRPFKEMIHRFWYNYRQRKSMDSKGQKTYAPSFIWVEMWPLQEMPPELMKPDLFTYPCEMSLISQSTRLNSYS

[2] = biological target: T2, Relaxin receptor 1 (Homo sapiens) (UniProt Q9HBX9); assay: Agonist activity at RXFP1 endogenously expressed in human OVCAR-5 cells assessed as increase in IBMX-induced cAMP accumulation pretreated with IBMX for 40 mins followed by compound addition and measured after 30 mins by HTRF assay relative to relaxin; format: functional, cell-based; conditions: filed as agonist
T2 sequence (whole entry): T1 sequence (Q9HBX9 whole entry)

[3] = Half life in Sprague-Dawley rat at 1 mg/kg, iv measured upto 72 hrs by LC-HRMS analysis; format: ADME, organism-based; conditions: in vivo
[4] = biological target: T1, Relaxin receptor 1; assay: Agonist activity at RXFP1 endogenously expressed in human OVCAR-5 cells assessed as increase in IBMX-induced cAMP accumulation pretreated with IBMX for 40 mins followed by compound addition and measured after 30 mins in presence of 2 % HSA by HTRF assay; format: functional, cell-based
[5] = biological target: T2, Relaxin receptor 1 (Homo sapiens); assay: Agonist activity at RXFP1 endogenously expressed in human OVCAR-5 cells assessed as increase in IBMX-induced cAMP accumulation pretreated with IBMX for 40 mins followed by compound addition and measured after 30 mins in presence of 2 % HSA by HTRF assay relative to control; format: functional, cell-based; conditions: filed as agonist
[6] = biological target: T2, Relaxin receptor 1 (Homo sapiens); assay: Selectivity ratio of EC50 for agonist activity at RXFP1 endogenously expressed in human OVCAR-5 cells in presence of 2 % HSA to EC50 for agonist activity at RXFP1 endogenously expressed in human OVCAR-5 cells in absence of HSA; format: cell-based
[7] = Bioavailability in Sprague-Dawley rat at 3 mg/kg, sc measured upto 72 hrs by LC-HRMS analysis; format: ADME, organism-based; conditions: in vivo

EC50 [1] [nM] | Emax [2] [%] | half-life [3] [h] | EC50 [4] [nM] | Emax [5] [%] | Ratio EC50 [6] | bioavailability [7] [%] | Compound
0.4 | 88 | 3.96 | 24.5 | 85 | 61 |  | CCCCCCCCCCCCCCCCCCC(=O)[C@H](CCC(=O)O)NC(=O)[C@H](CCC(=O)O)NC(=O)[C@H](CCC(=O)O)NC(=O)[C@H](CCCCN)NC(=O)COCC(=O)NCCCOCCOCCOCCCNC(=O)COCC(=O)NCCCOCCOCCOCCCNC(=O)COCC(=O)NCCCOCCOCCOCCCNC(=O)[C@H](CCCCCNC(C)=O)NC(=O)[C@H](CCCCN)NC(=O)[C@H](CCCCN)NC(=O)[C@H](CCCNC(=N)N)NC(=O)[C@@H](C)CNC(=O)[C@H](CO)NC(=O)[C@H](Cc1c[nH]c2ccccc12)NC(=O)[C@@H](NC(=O)[C@H](CO)NC(=O)[C@H](CCCCCNC(C)=O)NC(=O)[C@H](CCCCN)NC(=O)[C@H](CCCC)NC(=O)[C@H](CCSC)NC(=O)CNC(=O)[C@H](CCC(=O)O)NC(=O)[C@@H](C)CNC(=O)[C@@H](C)CNC(=O)[C@@H](NC(=O)[C@H](CCCCCNC(C)=O)NC(=O)[C@H](CCCCN)NC(=O)[C@H](C)NC(=O)[C@H](CCCNC(=N)N)NC(=O)[C@@H](NC(=O)[C@H](CCCCN)NC(=O)[C@H](CCC(=O)O)NC(=O)[C@H](CCCNC(=N)N)NC(=O)[C@H](CCC(=O)O)NC(=O)CNC(=O)[C@H](CCC(=O)O)NC(=O)[C@H](CC(C)C)NC(C)=O)C(C)C)[C@@H](C)CC)[C@@H](C)O (Ac-LEGEREKVRAK[hLys](Ac)I[β2hAla(2S)][β2hAla(2S)]EGM[Nle]K[hLys](Ac)STWS[β2hAla(2S)]RKK[hLys](Ac)-X5)
0.1 | 88 | 3.4 | 19.8 | 82 | 198 |  | CCCCCCCCCCCCCCCCCCC(=O)[C@H](CCC(=O)O)NC(=O)[C@H](CCC(=O)O)NC(=O)[C@H](CCC(=O)O)NC(=O)[C@H](CCCCN)NC(=O)COCCOCCNC(=O)COCCOCCNC(=O)COCCOCCNC(=O)[C@H](CCCCCNC(C)=O)NC(=O)[C@H](CCCCN)NC(=O)[C@H](CCCCN)NC(=O)[C@H](CCCNC(=N)N)NC(=O)[C@@H](C)CNC(=O)[C@H](CO)NC(=O)[C@H](Cc1c[nH]c2ccccc12)NC(=O)[C@@H](NC(=O)[C@H](CO)NC(=O)[C@H](CCCCCNC(C)=O)NC(=O)[C@H](CCCCN)NC(=O)[C@H](CCCC)NC(=O)[C@H](CCSC)NC(=O)CNC(=O)[C@H](CCC(=O)O)NC(=O)[C@@H](C)CNC(=O)[C@@H](C)CNC(=O)[C@@H](NC(=O)[C@H](CCCCCNC(C)=O)NC(=O)[C@H](CCCCN)NC(=O)[C@H](C)NC(=O)[C@H](CCCNC(=N)N)NC(=O)[C@@H](NC(=O)[C@H](CCCCN)NC(=O)[C@H](CCC(=O)O)NC(=O)[C@H](CCCNC(=N)N)NC(=O)[C@H](CCC(=O)O)NC(=O)CNC(=O)[C@H](CCC(=O)O)NC(=O)[C@H](CC(C)C)NC(C)=O)C(C)C)[C@@H](C)CC)[C@@H](C)O (Ac-LEGEREKVRAK[hLys](Ac)I[β2hAla(2S)][β2hAla(2S)]EGM[Nle]K[hLys](Ac)STWS[β2hAla(2S)]RKK[hLys](Ac)[AEEA][AEEA][AEEA]KEE-X6)
1 | 79 | 4.8 | 31 | 80 | 31 | 100 | CCCCCCCCCCCCCCCCCC(=O)[C@H](CCC(N)=O)NC(=O)[C@H](CCC(=O)O)NC(=O)[C@H](CCC(=O)O)NC(=O)[C@H](CCCCN)NC(=O)CCOCCOCCOCCOCCOCCOCCOCCOCCOCCOCCOCCNC(=O)[C@H](CCCCN)NC(=O)[C@H](CCCNC(=N)N)NC(=O)[C@@H](C)CNC(=O)[C@H](CO)NC(=O)[C@H](Cc1c[nH]c2ccccc12)NC(=O)[C@@H](NC(=O)[C@H](CO)NC(=O)[C@H](CCCC)NC(=O)[C@H](CCSC)NC(=O)CNC(=O)[C@H](CCC(=O)O)NC(=O)[C@@H](C)CNC(=O)[C@@H](C)CNC(=O)[C@@H](NC(=O)[C@H](CCC(N)=O)NC(=O)[C@H](C)NC(=O)[C@H](CCCNC(=N)N)NC(=O)[C@@H](NC(=O)[C@H](CCCCN)NC(=O)[C@H](CCC(=O)O)NC(=O)[C@H](CCCNC(=N)N)NC(=O)[C@H](CCC(=O)O)NC(=O)CNC(=O)[C@H](CCC(=O)O)NC(=O)[C@H](CC(C)C)NC(C)=O)C(C)C)[C@@H](C)CC)[C@@H](C)O (Ac-LEGEREKVRAQI[β2hAla(2S)][β2hAla(2S)]EGM[Nle]STWS[β2hAla(2S)]RK[PEG11]KEE-X2)
